Literature values, collected in patent US10821079B2, “PKC activators and combinations thereof” (Cognitive Research Enterprises, Inc., priority 2011, dated 2020).

What was measured:
[1] = molecular target: T1, PKC; conditions: cited from earlier work
T1 construct: Ki

[2] = test system: NCI 60 cell line screen; conditions: cited from earlier work
[3] = molecular target: PKCα (Homo sapiens, UniProt P17252); conditions: cited from earlier work
[4] = molecular target: protein kinase C; conditions: (−)-enantiomer; read-out: EC50 (potency); cited from earlier work

With `CC1=C[C@]23C(=O)[C@@H](C=C(COC(=O)c4ccccc4)[C@@H](O)[C@]2(O)[C@H]1OC(=O)c1ccccc1)[C@H]1[C@@H](C[C@H]3C)C1(C)C` [Ingenol 3,20-dibenzoate] as the compound, how does the Ki [1] read?
The Ki was 240 nM.

With `CC1=CC[C@H](C)C(C)(C)[C@@H]1/C=C/C(C)=C/CC[C@@]1(CO)[C@H](CCCO)/C(=C(/C)C=O)CC[C@]1(C)O` [Iripallidal] as the compound, how does the “GI50 (concentration required to inhibit growth by 50%)” value [2] read?
The value was “micromolar to nanomolar range”.

What about the Ki [3] of the same compound?
The Ki was 75.6 nM.

With `CCCCCCCCc1ccc2c3c(c[nH]c13)C[C@@H](CO)NC(=O)[C@H](C(C)C)N2C` [octylindolactam V, Octylindolactam V] as the compound, how does the EC50 [4] read?
The EC50 was 29 nM.
